Key:
[1] = test system: M. tuberculosis strains with Aspartic acid 516 changed into Valine or Tyrosine; type: cell-based
[2] = test system: M. tuberculosis; assay: microbe, parasite or virus in culture; type: cell-based; details: Mycobacterium tuberculosis, read-out: MIC (Minimal Inhibitory Concentration)

Row | Structure (SMILES) | Resistance or sensitivity of strains with the mutation [1] | MIC [2] [µg/mL]
1 | CO[C@H]1/C=C/O[C@@]2(C)Oc3c(C)c(O)c4c(c3C2=O)C2=NC3(CCN(CC(C)C)CC3)NC2=C(NC(=O)/C(C)=C\C=C\[C@H](C)[C@H](O)[C@@H](C)[C@@H](O)[C@@H](C)[C@H](OC(C)=O)[C@@H]1C)C4=O [rifabutin] | sensitivity to rifabutin is maintained | 
2 | CO[C@H]1/C=C/O[C@@]2(C)Oc3c(C)c(O)c4c(O)c(c(/C=N/N5CCN(C)CC5)c(O)c4c3C2=O)NC(=O)/C(C)=C\C=C\[C@H](C)[C@H](O)[C@@H](C)[C@@H](O)[C@@H](C)[C@H](OC(C)=O)[C@@H]1C [rifampicin] |  | > 2

— patent US7252936B2 (priority 1994, dated 2007)
